In patent US20230255877A1, “COMPOSITION FOR IMPROVING SKIN COMPRISING STEAMED CITRUS PEEL EXTRACT AS ACTIVE INGREDIENT” (LG HOUSEHOLD & HEALTH CARE LTD., priority 2022, published 2023):

Key:
Raw264.7 cells = assay: NO production inhibition in lipopolysaccharide-treated Raw264.7 cells (GRIESS reagent); type: cell-based
Procedure: In order to confirm the anti-inflammatory effect of the citrus peel extracts, NO production inhibition rate was measured after the extracts were untreated, steamed for 30 minutes, or steamed for 8 hours. In order to culture Raw264.7 cells, a mixture of DMEM (Dulbecco's Modified Eagle's Medium) and FBS (Fetal Bovine Serum) was used as a basic medium, and the Raw264.7 cells were seeded into a 24-well plate at a concentration of 1 to 2×10^5 cells/mL and cultured for 24 hours. The medium was removed and the cells were starvated in serum-free medium for 12 hours, and thereafter, the DMSO lysate of each extract was treated so that the concentration was 200 ppm, and after 30 minutes, lipopolysaccharide was added at a concentration of 500 ng/ml and cultured for 18 hours. L-NMMA, a positive control, was treated at 20 ppm. After completion of the culture, the supernatant was taken and transferred to a 96-well plate, reacted at room temperature by adding the GRIESS reagent, and the absorbance at 540 nm was measured using an ELISA reader. The amount of NO inhibited compared to the control group was calculated as NO production inhibition rate (%), and the average value was calculated after the experiment was performed three times.
In order to identify the cause of the change in anti-inflammatory efficacy among the steamed citrus peel extract components, the NO production inhibition rates of hesperidin, a flavonoid glycone, and hesperetin, a a flavonoid aglycone, were compared (Table 13)

human dermal fibroblasts = assay: Collagen synthesis promotion in human dermal fibroblasts (procollagen 1α1 ELISA); type: cell-based
Procedure: In order to confirm the collagen synthesis promoting effect of the citrus peel extracts, the amount of additional collagen production was measured after the extracts were untreated, steamed for 30 minutes, or steamed for 8 hours. In order to culture human dermal fibroblasts, a mixture of DMEM and FBS was used as a basic medium, and the skin fibroblasts were seeded into a 48-well plate at a concentration of 2 to 5×10^4 cells/mL and cultured for 24 hours. The medium was removed, and the DMSO lysate of each extract was treated in serum-free medium so that the concentration was 100 ppm, and cultured for 24 hours. A positive control that promotes collagen synthesis was treated with TGF-β to a concentration of 5 ppb. The cell culture solution was taken and the synthesized collagen was measured using the Human procollagen 1α1 duoset ELISA Kit (R&D Systems) and ELISA reader. A calibration curve was prepared by measuring the isolated and purified collagen at concentrations of 0.25, 0.5, 1, 2, 4, and 8 ng/mL, and based on the results, the amount of collagen (Type I collagen) produced in the DMSO lysate of the citrus peel extracts was calculated. The amount of collagen produced compared to the control group (DMSO) was calculated as collagen production rate (%), and the average value was calculated after the experiment was performed three times (Table 14).
In order to identify the cause of the change in collagen synthesis promoting efficacy among the steamed citrus peel extract components, the amount of additional collagen production of hesperidin, a flavonoid glycone, and hesperetin, a flavonoid aglycone, was compared (Table 15).

COc1ccc([C@@H]2CC(=O)c3c(O)cc(O)cc3O2)cc1O [Hesperetin, hesperetin]
inhibition at 0.1 ppm (Raw264.7 cells; Mus musculus, RAW264.7, 0.1 ppm, read-out: NO Production Inhibition Rate): -3% | inhibition at 1 ppm (Raw264.7 cells; Mus musculus, RAW264.7, 1 ppm, read-out: NO Production Inhibition Rate): 2.6% | inhibition at 10 ppm (Raw264.7 cells; Mus musculus, RAW264.7, 10 ppm, read-out: NO Production Inhibition Rate): 8.1% | inhibition at 20 ppm (Raw264.7 cells; Mus musculus, RAW264.7, 20 ppm, read-out: NO Production Inhibition Rate): 35.6% | Additional Collagen Production Rate (human dermal fibroblasts; 0.1 ppm): 17.0% | Additional Collagen Production Rate (human dermal fibroblasts; 1 ppm): 16.8%

COc1ccc([C@@H]2CC(=O)c3c(O)cc(O[C@@H]4O[C@H](CO[C@@H]5O[C@@H](C)[C@H](O)[C@@H](O)[C@H]5O)[C@@H](O)[C@H](O)[C@H]4O)cc3O2)cc1O [Hesperidin, hesperidin]
NO Production Inhibition Rate (Raw264.7 cells; 0.1 ppm): −5.5% | NO Production Inhibition Rate (Raw264.7 cells; 1 ppm): 0.6% | NO Production Inhibition Rate (Raw264.7 cells; 10 ppm): 1.8% | NO Production Inhibition Rate (Raw264.7 cells; 20 ppm): 2.4% | Additional Collagen Production Rate (human dermal fibroblasts; 0.1 ppm): −0.2% | Additional Collagen Production Rate (human dermal fibroblasts; 1 ppm): 0.2%

CNC(=N)NCCC[C@H](N)C(=O)O [L-NMMA]
NO Production Inhibition Rate (Raw264.7 cells; positive control, 20 ppm, Table 12): 55.1% | NO Production Inhibition Rate (Raw264.7 cells; positive control, Table 13): 51.3%

TGF-β: positive control that promotes collagen synthesis
Additional Collagen Production Rate (human dermal fibroblasts; positive control, 5 ppb, Table 14): 25.2% | Additional Collagen Production Rate (human dermal fibroblasts; positive control, Table 15): 23.7%
